Laboratory results from patent publication US6413997B1, “3-(substituted phenyl)-5-(substituted heterocyclyl)-1,2,4-triazole compounds” (priority 1998, dated 2002).

How the values were obtained:
Format in all cases: in vivo
[1] = system: cotton aphids (aphis gossypii); test: Insecticidal test for cotton aphid, foliar spray on infested squash cotyledons; conditions: 50 ppm spray, graded after 3 days, versus untreated check
Method: Insecticidal Test for Cotton Aphid (Aphis gossypii)
To prepare spray solutions, 2 mg of each test compound was dissolved into 2 mL of a 90:10 acetone:ethanol solvent. This 2 mL of chemical solution was added to 38 mL of water containing 0.05% Tween 20 surfactant to produce a 50 ppm spray solution.
Squash cotyledons were infested with cotton aphid (all life stages16-20 hours prior to application of spray solution. The solution was sprayed on both sides of each infested squash cotyledon (0.5 mL×2 each side with a sweeping action using a total of 2 mL of spray solution. The plants were allowed to air dry and held for 3 days in a controlled room at 26° C. and 40% RH after which time the test was graded. Grading was by actual count using a dissecting microscope and comparison of test counts to the untreated check. Results are given in Table 1 as percent control based on population reduction versus the untreated.

[2] = system: twospotted spider mite (tetranychus uriticae); test: Two-spotted spider mite test, ovicide method on cotton leaf discs; conditions: leaf disc dip, 6 days, hatched larvae versus untreated discs
Method: Insecticidal Test for Two-spotted Spider Mite (Tetranychus urticae)
Ten adult female two-spotted spider mites were placed on eight 2.2 cm leaf discs of cotton leaf, allowed to oviposit over 24 hours, and thereafter removed. The leaf discs were immersed in 100 ppm test solutions for 3 seconds, then allowed to dry with sixteen discs left untreated as a negative control. Discs were placed on an agar substrate and held at 24° C. and 90% relative humidity for 6 days.

[3] = system: sweetpotato whitefly (bemisia tabaci); test: Sweetpotato whitefly test on cotton plants under laboratory conditions; conditions: 800 ppm (table footnote), spray on cotton plants with eggs, 21 days, spent pupal cases versus solution-only plants
Method: Evaluation of Tests Compounds on Sweetpotato Whitefly (Bemisia tabacia) Under Laboratory Conditions
Four mg of each test compound was dissolved by adding 5 ml of a 90:10 acetone:ethanol solvent mixture to the vial containing the sample compound. […]
Five-week-old cotton plants reared in a greenhouse were stripped of all foliage except for the two uppermost true leaves that were greater than 5 cm in diameter. These plants were then placed into a laboratory colony of whiteflies for three days for oviposition by the colony females. All whiteflies were then removed from the test plants with pressurized air. The spray solution was then applied to the test plants with a hand-held syringe fitted with hollow cone nozzle. One mL spray solution was applied to each leaf top and bottom for a total of 4 mL per plant. Four replications of each test compound utilized a total of 16 mL spray solution. Plants were air dried and then placed in a holding chamber (26° C. and 40% RH for 21 days. Compound efficacy was evaluated by counting, under a dissecting microscope, the number of spent pupal cases per leaf. A spent pupal case represents a whitefly egg that has undergone full development to achieve adult status, thus indicating lack of control.
Percent control based on reduction of spent pupal cases of a test compound compared to solution-only (no test compound sprayed plants is reported in Table 1.

Row | SMILES | CA: activity at 50 ppm against cotton aphids (rating of % mortality / percent control) [1] | TSSM: activity at 100 ppm against twospotted spider mite (rating of % mortality / percent control) [2] | WF: activity at 800 ppm against sweetpotato whitefly (rating of % mortality / percent control) [3]
1 | Cc1cc(-c2nc(-c3c(F)cccc3F)nn2C)nn1C [Compound 71] | A (91-100) | G (Inactive) | G (Inactive)
2 | Cc1cc(-c2nc(-c3c(F)cccc3Cl)nn2C)nn1C [Compound 72] | A (91-100) | C (71-80) | G (Inactive)
3 | Cn1nc(-c2c(F)cccc2F)nc1-c1cnn(C)c1[N+](=O)[O-] [Compound 78] | A (91-100) | A (91-100) | G (Inactive)
4 | Cn1nc(-c2c(F)cccc2F)nc1-c1cnn(-c2ccc(Cl)cc2)c1C(F)(F)F [Compound 79] | A (91-100) | G (Inactive) | G (Inactive)
5 | Cn1nc(-c2c(F)cccc2F)nc1-c1ccc(Br)n1C [Compound 85] | B (81-90) | E (51-60) | G (Inactive)
6 | Cn1nc(-c2c(F)cccc2F)nc1-c1cc(Br)c(Br)n1C [Compound 86] | A (91-100) | G (Inactive) | G (Inactive)
